Here are results for 18 compounds from patent US7312233B2, “Amide derivatives as ion-channel ligands and pharmaceutical compositions and methods of using the same” (Renovis, Inc., priority 2005, dated 2007).

T2 sequence (Q8NER1 whole entry): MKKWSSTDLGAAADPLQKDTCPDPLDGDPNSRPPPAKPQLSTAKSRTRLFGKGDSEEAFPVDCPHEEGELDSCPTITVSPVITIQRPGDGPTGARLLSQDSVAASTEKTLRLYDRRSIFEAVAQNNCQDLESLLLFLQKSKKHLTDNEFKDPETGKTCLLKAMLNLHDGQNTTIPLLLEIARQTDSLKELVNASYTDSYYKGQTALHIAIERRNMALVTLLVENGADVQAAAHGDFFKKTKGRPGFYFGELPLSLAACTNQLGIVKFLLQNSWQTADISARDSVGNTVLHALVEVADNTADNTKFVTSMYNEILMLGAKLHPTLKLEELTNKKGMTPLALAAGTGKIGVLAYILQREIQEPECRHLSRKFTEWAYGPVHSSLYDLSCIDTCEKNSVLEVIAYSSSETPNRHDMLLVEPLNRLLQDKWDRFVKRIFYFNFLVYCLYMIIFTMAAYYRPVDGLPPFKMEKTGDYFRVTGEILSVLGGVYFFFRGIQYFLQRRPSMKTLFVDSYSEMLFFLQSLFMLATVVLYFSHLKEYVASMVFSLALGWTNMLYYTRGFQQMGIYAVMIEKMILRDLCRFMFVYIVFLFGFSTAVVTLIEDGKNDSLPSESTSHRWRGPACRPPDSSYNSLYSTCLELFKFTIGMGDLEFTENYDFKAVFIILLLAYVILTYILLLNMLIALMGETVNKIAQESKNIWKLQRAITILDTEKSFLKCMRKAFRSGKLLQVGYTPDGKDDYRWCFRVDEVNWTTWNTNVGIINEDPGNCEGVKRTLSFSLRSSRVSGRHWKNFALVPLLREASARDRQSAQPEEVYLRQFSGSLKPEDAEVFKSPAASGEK

In one assay the target is T1, hVR1 (Homo sapiens, UniProt Q8NER1).
T1 construct: expressed in transfected cells; host or cells: T-REx HEK 293 (Invitrogen), pcDNA5/TO vector
T1 sequence (Q8NER1 whole entry): as above
The assay is described as follows: Calcium uptake assay (Fura2, Flex Station) in HEK 293 cells expressing hVR1. To be noted: 0.3 μM compound, inhibition of agonist-induced calcium influx, 0.3 µM. The class given is cell-based.
Take `Cc1cc(C2CC2C(F)(F)F)ccc1C(=O)Nc1ccc2c(c1)OCCO2` (single isomer, unassigned) [Compound 8, N-(2,3-dihydrobenzo[b][1,4]dioxin-6-yl)-2-methyl-4-(2-(trifluoromethyl)cyclopropyl)benzamide]: the “% Inhib. @ 0.3 μM” value is given as “+ (compound exhibited 0-25% inhibition of calcium ion influx)”.

In the case of `Cc1cc(C2CC2C(F)(F)F)ccc1C(=O)Nc1ccc2c(c1)OCCO2` (single isomer, unassigned) [Compound 13, N-(2,3-dihydrobenzo[b][1,4]dioxin-6-yl)-2-methyl-4-(2-(trifluoromethyl)cyclopropyl)benzamide], the “% Inhib. @ 0.3 μM” value is reported as “+++ (compound exhibited 50-75% inhibition of calcium ion influx)”.

For `Cc1cc(C2CC2C(F)(F)F)ccc1C(=O)Nc1cnc2ccccc2c1` (single isomer, unassigned) [Compound 17, 2-methyl-N-(quinolin-3-yl)-4-(2-(trifluoromethyl)cyclopropyl)benzamide], the “% Inhib. @ 0.3 μM” value is “+++ (compound exhibited 50-75% inhibition of calcium ion influx)”.

Consider `Cc1cc(C2CC2C(F)(F)F)ccc1C(=O)Nc1cnc2ccccc2c1` (single isomer, unassigned) [Compound 18, 2-methyl-N-(quinolin-3-yl)-4-(2-(trifluoromethyl)cyclopropyl)benzamide], for which the “% Inhib. @ 0.3 μM” value is listed as “+++ (compound exhibited 50-75% inhibition of calcium ion influx)”.

As to `Cc1cc(C2CC2C(F)(F)F)ccc1C(=O)Nc1cnc2ccccc2c1` (single isomer, unassigned) [Compound 19, 2-methyl-N-(quinolin-3-yl)-4-(2-(trifluoromethyl)cyclopropyl)benzamide], the “% Inhib. @ 0.3 μM” value is reported as “+ (compound exhibited 0-25% inhibition of calcium ion influx)”.

For the compound `Cc1cc(C2CC2C(F)(F)F)ccc1C(=O)Nc1cnc2ccccc2c1` (single isomer, unassigned) [Compound 20, 2-methyl-N-(quinolin-3-yl)-4-(2-(trifluoromethyl)cyclopropyl)benzamide], the “% Inhib. @ 0.3 μM” value is “++ (compound exhibited 25-50% inhibition of calcium ion)”.

The same assay, now with this note: HEK293, 0.3 μM compound, inhibition of agonist-induced calcium influx, read-out: % Inhib. @ 0.3 μM.
`Cc1cc(C2CC2C(F)(F)F)ccc1C(=O)Nc1cccc2c1CCCC2` (single isomer, unassigned) [Compound 9, 2-methyl-N-(5,6,7,8-tetrahydronaphthalen-1-yl)-4-(2-(trifluoromethyl)cyclopropyl)benzamide]: the inhibition at 0.3 µM was in the range of 0 to 25%.

For the compound `COc1ccc(NC(=O)c2ccc(C3CC3C(F)(F)F)cc2C)cn1` (single isomer, unassigned) [Compound 10, N-(6-methoxypyridin-3-yl)-2-methyl-4-(2-(trifluoromethyl)cyclopropyl)benzamide], the inhibition at 0.3 µM was in the range of 25 to 50%.

On to `Cc1nc2cc(NC(=O)c3ccc(C4CC4C(F)(F)F)cc3C)ccc2s1` (single isomer, unassigned) [Compound 11, 2-methyl-N-(2-methylbenzo[d]thiazol-5-yl)-4-(2-(trifluoromethyl)cyclopropyl)benzamide], for which the inhibition at 0.3 µM was over 75%.

Take `Cc1cc(C2CC2C(F)(F)F)ccc1C(=O)Nc1ccc2sc(CO)nc2c1` (single isomer, unassigned) [Compound 15]: the inhibition at 0.3 µM was over 75%.

Turning to `COc1cccc(NC(=O)c2ccc(C3CC3C(F)(F)F)cc2C)c1` (single isomer, unassigned) [Compound 16, N-(3-methoxyphenyl)-2-methyl-4-(2-(trifluoromethyl)cyclopropyl)benzamide], the inhibition at 0.3 µM was in the range of 25 to 50%.

On to `COc1cccc(NC(=O)c2ccc(C3CC3)cc2C)c1` [Compound 1, 4-cyclopropyl-N-(3-methoxyphenyl)-2-methylbenzamide], for which the inhibition at 0.3 µM is 50 to 75%.

`Cc1cc(C2CC2)ccc1C(=O)Nc1ccc(C(C)(C)C)cc1` [Compound 2, N-(4-tert-butylphenyl)-4-cyclopropyl-2-methylbenzamide]: the inhibition at 0.3 µM fell in the range of 0 to 25%.

Regarding `O=C(Nc1cnc2ccccc2c1)c1ccc(C2CC2(Cl)Cl)cc1` (centres unmarked) [Compound 3, 4-(2,2-dichlorocyclopropyl)-N-(quinolin-3-yl)benzamide], the inhibition at 0.3 µM was 50 to 75%.

Take `COc1cccc(NC(=O)c2ccc(C3CC3(Cl)Cl)cc2)c1` (centres unmarked) [Compound 4, 4-(2,2-dichlorocyclopropyl)-N-(3-methoxyphenyl)benzamide]: the inhibition at 0.3 µM is over 75%.

For `Cc1cc(C2CC2)ccc1C(=O)Nc1cnc2ccccc2c1` [Compound 5, 4-cyclopropyl-2-methyl-N-(quinolin-3-yl)benzamide], the inhibition at 0.3 µM was over 75%.

Take `Cc1nc2cc(NC(=O)c3ccc(C4CC4(Cl)Cl)cc3)ccc2s1` (centres unmarked) [Compound 6, 4-(2,2-dichlorocyclopropyl)-N-(2-methylbenzo[d]thiazol-5-yl)benzamide]: the inhibition at 0.3 µM is over 75%.

For `Cc1nc2cc(NC(=O)c3ccc(C4CC4)cc3C)ccc2s1` [Compound 7, 4-cyclopropyl-2-methyl-N-(2-methylbenzo[d]thiazol-5-yl)benzamide], the inhibition at 0.3 µM was over 75%.

The next assay concerns the target T2, HsVR1 (Homo sapiens, UniProt Q8NER1).
T2 construct: expressed in transfected cells; host or cells: Xenopus oocytes injected with HsVR1 RNA
The assay is described as follows: Two-electrode voltage clamp recording (OpusXpress) of capsaicin induced VR1 current in Xenopus oocytes injected with HsVR1 RNA. To be noted: 250 nM capsaicin induced VR1 current, n=5 oocytes, FIG. 1. The class given is cell-based. On the procedure:
Oocytes are prepared by surgically removing Xenopus ovaries obtained from NASCO. The oocytes are isolated by enzymatic dissociation using collagenase (Worthington, 2 mg/ml). Oocytes are then individually injected with HsVR1 RNA. Each oocyte receives 64 nl of RNA solution in water at a concentration of 0.5 μg/μl. Injected oocytes are stored in standard oocyte incubation solution, ND96, containing (in mM) 96 NaCl, 2 KCl, 1 MgCl2, 1.8 CaCl2 and 50 μg/ml Gentamicin at 16° C. […] Eight oocytes are placed in the recording chambers. Each oocyte is impaled by 2 glass electrodes having resistances of 0.5 to 1 MOhm when filled with a 3 M KCl solution. Electrode advancement and oocyte impalement are under software control (OpusXpress® 1.1 Molecular Devices Corporation). The solutions are prepared in 96 well plates and robotically pipetted into the oocyte recording chambers by an 8 channel pipettor. Test solution delivery to the oocytes during the experiment is also under software control. […] The standard test concentrations for the compounds tested here usually range from 0.3 to 2000 nM. Quantitative measurement of VR1 current block is done by calculating the area under the curve described by the inward current. […] These points are then plotted on a logarithmic scale and fitted by a Hill function. The IC50 is calculated from the resulting Hill fit.
The term IC50 denotes the concentration at which inhibition is half-maximal. Consider `Cc1nc2cc(NC(=O)c3ccc(C4CC4)cc3C)ccc2s1` [Compound 7, 4-cyclopropyl-2-methyl-N-(2-methylbenzo[d]thiazol-5-yl)benzamide], for which the 50% inhibitory concentration (IC50) was found to be 178 ± 26 nM.

Staying with this assay, now noted: +/- standard error measurement, FIG. 1 legend.
In turn, `Cc1nc2cc(NC(=O)c3ccc(C4CC4)cc3C)ccc2s1` [Compound 7, 4-cyclopropyl-2-methyl-N-(2-methylbenzo[d]thiazol-5-yl)benzamide] came in with a concentration for half-maximal inhibition (IC50) of 177 nM.
